Data from US8058306B2, “Phenyl pyrrole aminoguanidine derivatives” (Action Pharma A/S, priority 2006, dated 2011).
“And” between values parts separate entries of the source, which are not always exact repeats. Equal values may be shown once. “Also recorded” adds a separate entry of the source. Read-outs that look alike come from different tables or passages of the source.

Assay: Plasma kinetics in rat following intravenous and oral administration
Type: in vivo, Sprague Dawley rats
Conditions: male rats
Experimental: This study determined the intravenous pharmacokinetics and oral bioavailability of compound 1 of the invention (see FIG. 1A, structure no. 1), compound 2 of the invention (see FIG. 1D, structure no. 19) and compound 3 of the invention (see FIG. 1I, structure no. 53) following administration to Sprague Dawley rats at a dose level of 10 mg/kg.
Six groups of 3 male rats received either a single intravenous or single oral administration of compound 1, 2 or 3 of the invention at a dose level of 10 mg/kg. Blood samples were obtained at various times after dosing. Plasma samples were analysed for unchanged test item using a suitable LC-MS/MS method. Pharmacokinetic parameters were estimated from individual plasma concentrations.
Eighteen male rats each received either a single intravenous or a single oral administration of either compound 1, 2 or 3 at a dose level of 10 mg/kg. The formulation was orally administered to each animal by gastric gavage and intravenously administered to each animal via a tail vein. The dose was administered at a dose volume of 5 mL/kg. The formulations were administered to each animal according to the details in the following table:
Blood samples (ca 0.3 mL) were removed from the femoral vein of each animal into tubes containing lithium heparin as anticoagulant.
Blood samples were collected from 3 rats at the following times after dose administration: • 3, 6, 15, 45 min and 1.5, 2.5, 4, 6, 8, 24 h post dose. Oral Administration
Blood samples were collected from 3 rats at the following times after dose administration: • 5, 15, 45 min and 1.5, 2.5, 4, 6, 8, 24 h post dose. Processing of Blood Samples
Pharmacokinetic parameters of compound 1, 2 and 3 were derived by non-compartmental analysis using WinNonLin Pro version 5.0.1 (Pharsight 2005). The following parameters were derived, where appropriate, from the individual plasma concentration versus time profiles:
• F % The absolute oral bioavailability calculated as [AUC0-t (oral)*Dose(iv)/AUC0-t (iv)*Dose (oral)]*100 based on mean values derived after oral and intravenous administration Consideration was given to the estimation of λz and corresponding t1/2 values. Three or more points are required within the terminal phase for λz and t1/2 to be estimated. The following additional variables were tabulated to aid identification of potentially unreliable estimates of t1/2 and AUC:
Pharmacokinetic parameters were reported as geometric mean except Tmax which was reported as the median. Geometric coefficient of variation was calculated as: […]
Actual sampling times were used for all calculations of pharmacokinetic parameters. Plasma concentrations that were below the limit of quantification were taken as zero for the pharmacokinetic analysis.

[1] = oral 10 mg/kg, individual animals, acetate, 10 mg/kg

In the case of N=C(N)NN=CC=Cc1cccn1-c1ccc(Cl)cc1 [Compound 1, [1-(4-chlorophenyl)-1H-pyrrol-2-yl-allylideneamino]guanidinium acetate], the Cmax (male, Sprague Dawley, rat, plasma, po, 10 mg/kg, oral 10 mg/kg, Arithmetic Mean, read-out: Cmax) was 104 ng/mL, the Tmax (male, Sprague Dawley, rat, plasma, po, 10 mg/kg, oral 10 mg/kg, Arithmetic Mean, read-out: tmax) was 6.65 h and the AUC(0-t) (male, Sprague Dawley, rat, plasma, po, 10 mg/kg, oral 10 mg/kg, Geometric mean, read-out: AUC0-t) was 1340 ng·h/mL. It also gave a Cmax (male, Sprague Dawley, rat, plasma, po, 10 mg/kg, oral 10 mg/kg, Geometric mean, read-out: Cmax) of 104 ng/mL, a Tmax (male, Sprague Dawley, rat, plasma, po, 10 mg/kg, oral 10 mg/kg, Geometric mean, read-out: tmax) of 6.34 h and an AUC(0-t) (male, Sprague Dawley, rat, plasma, po, 10 mg/kg, oral 10 mg/kg, Median, read-out: AUC0-t) of 1460 ng·h/mL. For the same compound, the Cmax (male, Sprague Dawley, rat, plasma, po, 10 mg/kg, oral 10 mg/kg, Median, read-out: Cmax) was 104 ng/mL, the Tmax (male, Sprague Dawley, rat, plasma, po, 10 mg/kg, oral 10 mg/kg, Median, read-out: tmax) was 7.97 h and the AUC(0-inf) (male, Sprague Dawley, rat, plasma, po, 10 mg/kg, oral 10 mg/kg, individual animals) was 1130 ng·h/mL. For the same compound, the AUC(0-t) (male, Sprague Dawley, rat, plasma, po, 10 mg/kg, oral 10 mg/kg, individual animals, read-out: AUC0-t) was 1500 ng·h/mL, the Cmax (male, Sprague Dawley, rat, plasma, po, 10 mg/kg, oral 10 mg/kg, individual animals, read-out: Cmax) was 106 ng/mL and the MRT (male, Sprague Dawley, rat, plasma, po, 10 mg/kg, oral 10 mg/kg, individual animals, read-out: MRT) was 7.86 h. The half-life (male, Sprague Dawley, rat, plasma, po, 10 mg/kg, oral 10 mg/kg, individual animals, read-out: t1/2 (converted)) was 4.61 h, the Tmax (male, Sprague Dawley, rat, plasma, po, 10 mg/kg, oral 10 mg/kg, individual animals, read-out: tmax) was 7.97 h and the Tmax (male, Sprague Dawley, rat, plasma, po, 10 mg/kg, oral 10 mg/kg, from mean plasma concentrations, read-out: time post dose at which maximum plasma concentration was observed (tmax)) was 8 h. It also gave a half-life (male, Sprague Dawley, rat, plasma, po, 10 mg/kg, oral 10 mg/kg, read-out: apparent terminal half-life (converted)) of 4.61 h, a concentration at 0.08 h (male, Sprague Dawley, rat, plasma, po, 10 mg/kg, single oral 10 mg/kg, 0.08 h, individual animals, LLOQ 2.50 (Table X: * 5.0, ** 25, diluted samples), read-out: Sample Concentration in plasma) of 2.66 ng/mL and a concentration at 0.08 h (male, Sprague Dawley, rat, plasma, po, 10 mg/kg, single oral 10 mg/kg, 0.08 h, mean, read-out: Mean Concentration in plasma) of 2.66 ng/mL. The concentration at 0.25 h (male, Sprague Dawley, rat, plasma, po, 10 mg/kg, single oral 10 mg/kg, 0.25 h, individual animals, read-out: Sample Concentration in plasma) was 6.53 ng/mL, the concentration at 0.25 h (male, Sprague Dawley, rat, plasma, po, 10 mg/kg, single oral 10 mg/kg, 0.25 h, mean of 3, read-out: Mean Concentration in plasma) was 7.29 ng/mL and the concentration at 0.75 h (male, Sprague Dawley, rat, plasma, po, 10 mg/kg, single oral 10 mg/kg, 0.75 h, mean of 3, read-out: Mean Concentration in plasma) was 17.3 ng/mL. The concentration at 1.5 h (male, Sprague Dawley, rat, plasma, po, 10 mg/kg, single oral 10 mg/kg, 1.5 h, mean of 3, read-out: Mean Concentration in plasma) was 39.1 ng/mL, the concentration at 2.5 h (male, Sprague Dawley, rat, plasma, po, 10 mg/kg, single oral 10 mg/kg, 2.5 h, individual animals, read-out: Sample Concentration in plasma) was 65.9 ng/mL and the concentration at 2.5 h (male, Sprague Dawley, rat, plasma, po, 10 mg/kg, single oral 10 mg/kg, 2.5 h, mean of 3, read-out: Mean Concentration in plasma) was 60.1 ng/mL. For the same compound, the concentration at 4 h (male, Sprague Dawley, rat, plasma, po, 10 mg/kg, single oral 10 mg/kg, 4 h, individual animals, read-out: Sample Concentration in plasma) was 102 ng/mL, the concentration at 4 h (male, Sprague Dawley, rat, plasma, po, 10 mg/kg, single oral 10 mg/kg, 4 h, mean of 3, read-out: Mean Concentration in plasma) was 90.3 ng/mL and the concentration at 6 h (male, Sprague Dawley, rat, plasma, po, 10 mg/kg, single oral 10 mg/kg, 6 h, individual animals, read-out: Sample Concentration in plasma) was 72.3 ng/mL. For the same compound, the concentration at 6 h (male, Sprague Dawley, rat, plasma, po, 10 mg/kg, single oral 10 mg/kg, 6 h, mean of 3, read-out: Mean Concentration in plasma) was 86.5 ng/mL, the concentration at 8 h (male, Sprague Dawley, rat, plasma, po, 10 mg/kg, single oral 10 mg/kg, 8 h, individual animals, LLOQ 2.50, read-out: Sample Concentration in plasma) was 68.8 ng/mL and the concentration at 8 h (male, Sprague Dawley, rat, plasma, po, 10 mg/kg, single oral 10 mg/kg, 8 h, mean, LLOQ 2.50, read-out: Mean Concentration in plasma) was 92.9 ng/mL. For the same compound, the concentration at 24 h (male, Sprague Dawley, rat, plasma, po, 10 mg/kg, single oral 10 mg/kg, 24 h, individual animals, LLOQ 2.50, read-out: Sample Concentration in plasma) was 5.35 ng/mL, the concentration at 24 h (male, Sprague Dawley, rat, plasma, po, 10 mg/kg, single oral 10 mg/kg, 24 h, mean, LLOQ 2.50, read-out: Mean Concentration in plasma) was 7.68 ng/mL and the “mean absorption time (MAT)” value (oral 10 mg/kg) was 2.10 h. The MAT (oral 10 mg/kg, individual animals) was 2.10 h, the AUC(0-t) [1] was 1094 ng·h/mL and 1460 ng·h/mL and the Cmax [1] was 102 ng/mL. The Tmax [1] was 4.00 h and 7.98 h, the “maximum observed plasma concentration, mean value” (oral 10 mg/kg, at tmax) was 92.9 ng/mL and the “Sample Concentration in plasma” value (single intravenous 10 mg/kg, 0.05 h, individual animals, acetate, 10 mg/kg) was 1650 ng/mL and 3630 ng/mL and 1460 ng/mL. The “Sample Concentration in plasma” value (single intravenous 10 mg/kg, 0.1 h, individual animals, acetate, 10 mg/kg) was 1220 ng/mL and 1200 ng/mL, the “Sample Concentration in plasma” value (single intravenous 10 mg/kg, 0.25 h, individual animals, acetate, 10 mg/kg) was 830 ng/mL and 696 ng/mL and the “Sample Concentration in plasma” value (single intravenous 10 mg/kg, 0.75 h, individual animals, acetate, 10 mg/kg) was 332 ng/mL and 402 ng/mL. The “Sample Concentration in plasma” value (single intravenous 10 mg/kg, 1.5 h, individual animals, acetate, 10 mg/kg) was 236 ng/mL and 340 ng/mL, the “Sample Concentration in plasma” value (single intravenous 10 mg/kg, 2.5 h, individual animals, acetate, 10 mg/kg) was 202 ng/mL and 259 ng/mL and the “Sample Concentration in plasma” value (single intravenous 10 mg/kg, 4 h, individual animals, acetate, 10 mg/kg) was 208 ng/mL and 238 ng/mL. For the same compound, the “Sample Concentration in plasma” value (single intravenous 10 mg/kg, 6 h, individual animals, acetate, 10 mg/kg) was 172 ng/mL and 168 ng/mL, the “Sample Concentration in plasma” value (single intravenous 10 mg/kg, 8 h, individual animals, LLOQ 2.50, acetate, 10 mg/kg) was 151 ng/mL and 135 ng/mL and 5.04 ng/mL and the “Sample Concentration in plasma” value (single intravenous 10 mg/kg, 24 h, individual animals, LLOQ 2.50, acetate, 10 mg/kg) was 13.2 ng/mL and 16.8 ng/mL and 30.7 ng/mL. The adverse effects (single intravenous or oral administration, 10 mg/kg, acetate) was “No adverse effects; also recorded: No adverse affects”, the “Sample Concentration in plasma” value (single oral 10 mg/kg, 0.08 h, individual animals, LLOQ 2.50 (Table X: * 5.0, ** 25, diluted samples), acetate, 10 mg/kg) was “*<LLOQ; also recorded: **<LLOQ” and the “Sample Concentration in plasma” value (single oral 10 mg/kg, 0.25 h, individual animals, acetate, 10 mg/kg) was 5.92 ng/mL and 9.43 ng/mL. For the same compound, the “Sample Concentration in plasma” value (single oral 10 mg/kg, 0.75 h, individual animals, acetate, 10 mg/kg) was 11.8 ng/mL and 15.9 ng/mL and 24.1 ng/mL, the “Sample Concentration in plasma” value (single oral 10 mg/kg, 1.5 h, individual animals, acetate, 10 mg/kg) was 20.5 ng/mL and 52.1 ng/mL and 44.6 ng/mL and the “Sample Concentration in plasma” value (single oral 10 mg/kg, 2.5 h, individual animals, acetate, 10 mg/kg) was 57.1 ng/mL and 57.2 ng/mL. The “Sample Concentration in plasma” value (single oral 10 mg/kg, 4 h, individual animals, acetate, 10 mg/kg) was 79.4 ng/mL and 89.4 ng/mL, the “Sample Concentration in plasma” value (single oral 10 mg/kg, 6 h, individual animals, acetate, 10 mg/kg) was 98.4 ng/mL and 88.8 ng/mL and the “Sample Concentration in plasma” value (single oral 10 mg/kg, 8 h, individual animals, LLOQ 2.50, acetate, 10 mg/kg) was 104 ng/mL and 106 ng/mL. For the same compound, the “Sample Concentration in plasma” value (single oral 10 mg/kg, 24 h, individual animals, LLOQ 2.50, acetate, 10 mg/kg) was 7.50 ng/mL and 10.2 ng/mL.
